Usually inhibition stands for the drop in the measured response relative to a control, in per cent.

Active and inactive are the calls of the source. The rule behind the calls is not given here. Where only a bound is given, the exact number is not on record here.

Experiment [1] deals with Beta-2 adrenergic receptor (Cavia porcellus) (UniProt Q8K4Z4). The settings on record: Trachea.
For the next experiment, the species on record is Cavia porcellus. The experiment in a line: Selectivity ratio of ED50 for beta-2 adrenergic receptor in guinea pig trachea over ED50 for beta-1 adrenergic receptor in guinea pig atria.
The target in experiment [2] is Beta-1 adrenergic receptor (Cavia porcellus) (UniProt B0FL73). The experiment in a line: Ratio of isoproterenol ED50 to compound ED50 for beta-1 adrenergic receptor in guinea pig atria assessed as increase in rate of contraction of spontaneously beating right atria.
Chain of Beta-1 adrenergic receptor (Cavia porcellus) (B0FL73 1-467): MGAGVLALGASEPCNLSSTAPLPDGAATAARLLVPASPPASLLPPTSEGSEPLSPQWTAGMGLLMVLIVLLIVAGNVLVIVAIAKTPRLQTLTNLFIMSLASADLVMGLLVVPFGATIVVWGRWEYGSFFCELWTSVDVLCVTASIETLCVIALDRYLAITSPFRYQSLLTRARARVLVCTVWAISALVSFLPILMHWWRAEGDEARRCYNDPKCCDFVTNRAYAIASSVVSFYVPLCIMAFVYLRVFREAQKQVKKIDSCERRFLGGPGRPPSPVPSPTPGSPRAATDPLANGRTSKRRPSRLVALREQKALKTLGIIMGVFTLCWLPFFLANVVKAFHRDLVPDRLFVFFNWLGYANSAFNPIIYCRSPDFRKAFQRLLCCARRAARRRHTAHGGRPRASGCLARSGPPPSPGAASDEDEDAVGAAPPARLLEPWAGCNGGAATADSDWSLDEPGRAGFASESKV
For experiment [3] the target is unchanged. The experiment in a line: Ratio of N-tert-butyl-norepinephrine ED50 to compound ED50 for beta-1 adrenergic receptor in guinea pig atria assessed as increase in rate of contraction of spontaneously beating right atria.
Experiment [4] relates to Canis familiaris. The experiment can be described thus: Reduction of diastolic blood pressure in iv dosed anesthetized dog. It counts as functional, organism-based. Particulars: Canis lupus familiaris; Artery.
Experiment [5] concerns Canis familiaris. The experiment can be described thus: Reduction of diastolic blood pressure in iv dosed anesthetized dog in presence of 2 mg/kg of propranolol, iv. The experiment is classed as functional, organism-based. Also on record: dose 2 mg/kg. The settings on record: Canis lupus familiaris; Artery.
Experiment [6] has as its system Canis familiaris. The experiment in a line: Reduction of heart rate in iv dosed anesthetized dog in presence of 2 mg/kg of propranolol, iv. The settings on record: Canis lupus familiaris. Also on record: dose 2 mg/kg. It counts as functional, organism-based.
For experiment [7], the target named is Beta-1 adrenergic receptor (Cavia porcellus) (UniProt B0FL73).
Experiment [8] has as its system Beta-2 adrenergic receptor (Cavia porcellus). The experiment in a line: Ratio of isoproterenol ED50 to compound ED50 for beta-2 adrenergic receptor in guinea pig trachea assessed as relaxation of spontaneously contracted muscle.
For experiment [9], the target named is Beta-1 adrenergic receptor (Cavia porcellus) (UniProt B0FL73). The experiment can be described thus: Agonist activity at beta-1 adrenergic receptor in guinea pig atria assessed as increase in rate of contraction of spontaneously beating right atria at 4.8 x 10^-5 M.
Experiment [10] has the same target. The experiment can be described thus: Antagonist activity at beta-1 adrenergic receptor in guinea pig atria assessed as inhibition of isoproterenol-induced increase in rate of contraction of spontaneously beating right atria at 1 x 10^-3 M.
The target of experiment [11] is Beta-2 adrenergic receptor (Cavia porcellus) (UniProt Q8K4Z4). The experiment can be described thus: Agonist activity at beta-2 adrenergic receptor in guinea pig trachea assessed as relaxation of spontaneously contracted muscle at 4.8 x 10^-5 M. The arrangement: scale not given: the % may be the effect or the level left.
Experiment [12] addresses Beta-1 adrenergic receptor (Cavia porcellus) (UniProt B0FL73). The experiment in a line: Antagonist activity at beta-1 adrenergic receptor in guinea pig atria assessed as inhibition of isoproterenol-induced increase in rate of contraction of spontaneously beating right atria at 6.3 x 10^-5 M.
For experiment [13] the target is unchanged. The experiment can be described thus: Antagonist activity at beta-1 adrenergic receptor in guinea pig atria assessed as inhibition of isoproterenol-induced increase in rate of contraction of spontaneously beating right atria at 8.4 x 10^-5 M.
Experiment [14] has the same target. The experiment in a line: Agonist activity at beta-1 adrenergic receptor in guinea pig atria assessed as increase in rate of contraction of spontaneously beating right atria at 9 x 10^-5 M.
In experiment [15] the target is Beta-2 adrenergic receptor (Cavia porcellus) (UniProt Q8K4Z4). The experiment can be described thus: Intrinsic activity at beta-2 adrenergic receptor in guinea pig trachea assessed as relaxation of spontaneously contracted muscle relative to papaverine.
For experiment [16], the target named is Beta-1 adrenergic receptor (Cavia porcellus) (UniProt B0FL73). The experiment can be described thus: Antagonist activity at beta-1 adrenergic receptor in guinea pig atria assessed as inhibition of isoproterenol-induced increase in rate of contraction of spontaneously beating right atria at 3 x 10^-7 M.

Chain of Beta-2 adrenergic receptor (Cavia porcellus) (UniProt Q8K4Z4) (Q8K4Z4 whole entry, looked up): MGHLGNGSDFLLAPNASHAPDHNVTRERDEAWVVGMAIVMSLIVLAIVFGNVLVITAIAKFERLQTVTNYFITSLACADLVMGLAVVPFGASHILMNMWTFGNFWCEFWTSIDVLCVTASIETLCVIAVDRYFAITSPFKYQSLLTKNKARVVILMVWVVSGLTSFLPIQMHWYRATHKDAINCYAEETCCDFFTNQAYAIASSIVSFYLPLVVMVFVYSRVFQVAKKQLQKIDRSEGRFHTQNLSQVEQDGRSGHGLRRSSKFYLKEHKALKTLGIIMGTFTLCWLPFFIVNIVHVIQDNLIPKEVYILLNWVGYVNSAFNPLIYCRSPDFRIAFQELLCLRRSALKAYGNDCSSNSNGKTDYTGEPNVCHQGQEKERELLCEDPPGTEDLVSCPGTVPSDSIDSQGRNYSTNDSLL

In experiment [1], `CC(C)NCC(O)c1ccc(O)c(O)c1` (centres undefined) yielded an ED50 of 7.1 nM.
Turning to `CC(C)(C)NCC(O)COc1ccc(O)c(O)c1` (centres undefined), the Ratio ED50 in the experiment filed under Cavia porcellus amounted to 0.034; in experiment [2] it was 310; in experiment [3] it was 650; in experiment [8], 22. Moreover, the outcome in the experiment on Canis familiaris [4] was Active. Also, the result with Canis familiaris [5] and in the experiment on Canis familiaris [6] was inactive. This compound displayed an ED25 in [7] of 1.1 ×10⁻¹¹ M. Also, in experiment [1], the ED50 came out at 3.2 ×10⁻¹⁰ M.
Take `CC(C)(C)NCC(O)COc1ccc(CS(C)(=O)=O)cc1` (centres undefined): the Activity in [9] and in experiment [11] was 0% throughout. Besides, the inhibition in experiment [10] was determined as 78%. In [7], this compound displayed an ED25 of 4.8 ×10⁻⁵ M. In addition, the ED50 in experiment [1] came out at 4.8 ×10⁻⁵ M.
`CC(C)(C)NCC(O)COc1cccc(O)c1` (centres undefined): in experiment [12], the inhibition result was “Active”. In addition, the Ratio ED50 in the experiment listed under Cavia porcellus was 26. In addition, the ED25 in experiment [7] is 5.4 ×10⁻⁷ M. Further, in [1], the ED50 was determined as 2.1 ×10⁻⁸ M.
On to `CC(C)(C)NCC(O)COc1ccc(O)cc1` (centres undefined), for which the inhibition result in [13] is “Active”. For the same compound, the Ratio ED50 in the experiment listed under Cavia porcellus is 3.8. For the same compound, in experiment [7], the ED25 turned out to be 5 ×10⁻⁸ M. Also, in experiment [1], the ED50 was 1.3 ×10⁻⁸ M.
Take `CC(C)NCC(O)c1ccc(O)c(NS(C)(=O)=O)c1` (centres undefined): the Ratio ED50 in the experiment filed under Cavia porcellus came to 2.9. This compound had an ED25 in [7] of 7.6 ×10⁻⁸ M. The compound also yielded an ED50 in experiment [1] of 2.6 ×10⁻⁸ M.
`CC(C)(C)NCC(O)COc1ccc(NS(C)(=O)=O)c(O)c1` (centres undefined): the Activity in experiment [14] was 19%. Moreover, in experiment [15], the Intrinsic activity was 0.8. In addition, the Ratio ED50 in the experiment filed under Cavia porcellus was more than 27. Also, the ED25 in [7] is 9 ×10⁻⁵ M. In [1], this compound had an ED50 of 3400 nM.
As for `CC(C)(C)NCC(O)COc1ccc(O)c(NS(C)(=O)=O)c1` (centres undefined), the inhibition in [16] is 44%. Further, the Ratio ED50 in the experiment filed under Cavia porcellus was 182. This compound also had an ED25 in [7] of 1200 nM. In experiment [1], the ED50 came out at 6.6 nM.
Regarding `CC(C)(C)NC[C@H](O)c1ccc(O)c(O)c1`, in the experiment listed under Cavia porcellus, the Ratio ED50 was 5.5. In experiment [7], this compound showed an ED25 of 7.1 nM. In addition, in [1], the ED50 turned out to be 1.3 nM.
As to `CC(C)NCC(O)c1cccc(O)c1` (centres undefined), the Ratio ED50 in the experiment listed under Cavia porcellus turned out to be 0.8. In experiment [7], this compound returned an ED25 of 3.7 ×10⁻⁸ M. The same compound displayed an ED50 in experiment [1] of 4.5 ×10⁻⁸ M.
The matching figures for `CC(C)NCC(O)c1ccc(O)cc1` (centres undefined): 0.7, 7.7 ×10⁻⁸ M and 1.1 ×10⁻⁷ M.

Source of the values: ChEMBL document CHEMBL3244287, “Adrenergic agents. 4. Substituted phenoxypropanolamine derivatives as potential beta-adrenergic agonists” (J Med Chem, 1977).
